Measurements taken from a melting point compilation (Tetko et al.; mined from patent text by program, amines drawn as free bases though some values may be those of a salt).

**Q.** For `CC(C)(C)NCC(O)COc1ccc2oc(-c3ccc(OCc4ccccc4)c(OCc4ccccc4)c3)cc(=O)c2c1` (configuration not stated), which melting point is on record?
**A.** 156 to 157 °C

**Q.** With `CCNC(=O)c1c(-c2ccccc2)cccc1[Si](C)(C)C` as the compound, how does the melting point read?
**A.** 159 to 160 °C

**Q.** Which melting point does the source give for `CCCCCOCCOc1ccc(-c2ccc3c(c2)C=C(C(=O)Nc2ccc(CN(C)C4CCOCC4)cc2)CCS3(=O)=O)cc1` here?
**A.** 188 to 189 °C

**Q.** With `CSc1cn(C)cc(-c2cccc(C(F)(F)F)c2)c1=O` as the compound, how does the melting point read?
**A.** 121 to 122 °C

**Q.** Which melting point does the source give for `CC(C)=NN=C1NCC(=O)N1` here?
**A.** 182 to 187 °C

**Q.** Which melting point does the source give for `CCOC(=O)c1ccc(-c2ccc(-c3ccccc3)cc2-c2ccc3c(c2)C(C)(C)CCC3(C)C)cc1O` here?
**A.** < 70 °C

**Q.** For `COc1ccc(CC(=O)NOCc2ccccc2)cc1`, which melting point is on record?
**A.** 98 to 99 °C

**Q.** Which melting point does the source give for `Nc1cc(Br)ccc1-c1ccc(Br)cc1N` here?
**A.** 118 to 119 °C

**Q.** For `Cc1cccc(C2(O)CCN(C)CC2)c1`, which melting point is on record?
**A.** 86 to 90 °C

**Q.** Which melting point does the source give for `O=C1C(c2ccccc2)=C(c2ccccc2)C(c2ccccc2)C1c1ccccc1` (configuration not stated) here?
**A.** 162 to 163 °C

**Q.** For `CC(C)C(C)NC1=NS(=O)(=O)c2cc([N+](=O)[O-])ccc2N1` (configuration not stated), which melting point is on record?
**A.** 308 to 311 °C

**Q.** With `Cc1ccc(S(=O)(=O)N2CCC[C@H](CC#N)c3ccccc32)cc1` as the compound, how does the melting point read?
**A.** 106 °C

**Q.** With `CC(C)(C)C(=O)c1ccc(CN2C(=O)c3ccccc3C2=O)cc1` as the compound, how does the melting point read?
**A.** 138 to 140 °C

**Q.** For `CCNC(=O)c1ccc(N2CCN(Cc3cc4c(c(OCC)c3)OC(C)C(=O)N4)CC2)c(Cl)c1` (configuration not stated), which melting point is on record?
**A.** 187 to 199 °C

**Q.** Which melting point does the source give for `COC(=O)c1ccc2ncc(C(=O)NCc3ccc(Cl)cc3)c(O)c2c1` here?
**A.** 290 to 292 °C

**Q.** Which melting point does the source give for `CCC(=O)c1cnc2c(OCCO)cccc2c1Nc1ccccc1C` here?
**A.** 174 to 176 °C

**Q.** Which melting point does the source give for `Nc1nc2cc(S(=O)(=O)c3ccccc3)ccc2s1` here?
**A.** 278 to 280 °C

**Q.** With `Nc1nc2c(s1)CCN(CC=Cc1ccc(OCc3ccccc3)cc1)CC2` as the compound, how does the melting point read?
**A.** 135 to 140 °C

**Q.** For `COc1cc(CC(C#N)(C=O)C(OC)OC)cc(OC)c1OC` (configuration not stated), which melting point is on record?
**A.** 118 to 122 °C

**Q.** Which melting point does the source give for `OC1CSC(Oc2cncc(-c3ccnc(Cl)c3)c2)C(O)C1O` (configuration not stated) here?
**A.** 204 °C

**Q.** Which melting point does the source give for `N#CC(=Cc1cc2ccccc2c2ccccc12)c1ccncc1` here?
**A.** 206 to 208 °C

**Q.** For `N#Cc1c(N)nc2ccccc2c1Cl`, which melting point is on record?
**A.** 210 °C

**Q.** Which melting point does the source give for `Cc1c(C(F)(F)F)cnn(-c2ncc(Cl)cc2F)c1=O` here?
**A.** 91 to 93 °C

**Q.** For `CNC(=S)N(C)c1nccs1`, which melting point is on record?
**A.** 68 to 69 °C

**Q.** Which melting point does the source give for `CN1CC(CN2CCN(c3ccccc3)CC2)OC1=O` (configuration not stated) here?
**A.** 110 to 112 °C

**Q.** For `CC1(C)C=C(NC=NC#N)c2cc(C#N)ccc2O1`, which melting point is on record?
**A.** 159 to 161 °C

**Q.** With `CC(C)(C)OC(=O)N1CCN(c2cccc3ccc(Nc4ncccc4N)cc23)CC1` as the compound, how does the melting point read?
**A.** 183 to 184 °C

**Q.** Which melting point does the source give for `CCOC(=O)c1nc(C2CC2)nc(NCc2ccccc2)c1Cl` here?
**A.** 59 to 61 °C

**Q.** With `Fc1ccc(-c2ncc(Br)cn2)cc1` as the compound, how does the melting point read?
**A.** 156 °C

**Q.** For `CC(C)C/C(=C/CCNC(=O)OCc1ccccc1)C(=O)O`, which melting point is on record?
**A.** 70 to 71 °C

**Q.** Which melting point does the source give for `Cc1ccc(-c2c(C)ccn2-c2ccc(S(C)(=O)=O)cc2)cc1` here?
**A.** 158 to 160 °C

**Q.** Which melting point does the source give for `O=C(O)C1=Cc2c(ccc(Cl)c2-c2ccccc2)OC1C(F)(F)F` (configuration not stated) here?
**A.** 229 to 231 °C

**Q.** Which melting point does the source give for `COc1cc(C#CCO)cc2c(O)c(C(=O)NCc3ccc(Cl)cc3)cnc12` here?
**A.** 207 to 208 °C

**Q.** With `CC1Cc2cc3c(cc2C(c2ccccc2)N1)OCO3` (configuration not stated) as the compound, how does the melting point read?
**A.** 89 to 91 °C

**Q.** Which melting point does the source give for `Nc1nc(NCc2ccc(OCc3ccccc3)cc2)nc2nc(-c3ccco3)nn12` here?
**A.** 168 to 170 °C

**Q.** For `Cc1nc(N2C(=O)N(CCc3ccc(F)cc3)CC2O)sc1C(=O)NCc1cccnc1` (configuration not stated), which melting point is on record?
**A.** 182 to 184 °C

**Q.** Which melting point does the source give for `COc1cc(N)c(Cl)cc1C(=O)NN1CCN(C)CC1` here?
**A.** 220 °C

**Q.** Which melting point does the source give for `CCC(O)(c1ccc(OCCCN2CCCCC2)cc1)c1ccccc1OC` (configuration not stated) here?
**A.** 110 to 111 °C

**Q.** For `Cc1cc2ncc(C#N)c(Cl)c2s1`, which melting point is on record?
**A.** 163 to 164 °C

**Q.** Which melting point does the source give for `CCOC(=O)c1cnn(-c2ccc(OCCC(C)C)c(C#N)c2)c1` here?
**A.** 125 to 126 °C

**Q.** For `C#CCOCCn1cnc2cnc3ccccc3c21`, which melting point is on record?
**A.** 124 to 126 °C

**Q.** Which melting point does the source give for `COc1cc(OC)cc(\C(C)=C/C=C/C(C)=C/C(=O)Nc2ccc(O)cc2)c1` here?
**A.** 162 to 163 °C

**Q.** With `CCCc1c(C(=O)C(C)C)c2ccc(C(=O)OCc3ccccc3)cc2n1C(=O)c1ccccc1Cl` as the compound, how does the melting point read?
**A.** 67.5 to 70 °C

**Q.** Which melting point does the source give for `COc1cc2cc3ncc(C#N)c(Nc4ccc(F)c(Cl)c4)c3cc2cc1OCCN1CCOCC1` here?
**A.** 205 to 210 °C

**Q.** For `O=C(O)c1cccc(-c2ccnc3cc(Cc4cccc(C(F)(F)F)c4)nn23)c1`, which melting point is on record?
**A.** 111 to 145 °C

**Q.** Which melting point does the source give for `NC(=O)COCCN1CCN(C(c2ccccc2)c2ccccc2)CC1` here?
**A.** 119 to 120 °C

**Q.** For `CCOC(=O)N1CCc2[nH]cc3c(=O)n(-c4ccccc4)nc-3c2C1`, which melting point is on record?
**A.** 236 to 238 °C

**Q.** For `Nc1cc(Cl)cc(NCCO)c1[N+](=O)[O-]`, which melting point is on record?
**A.** 183 °C

**Q.** For `CC(C)(C)C1CCCC=C1c1ccc(C(=O)O)cc1` (configuration not stated), which melting point is on record?
**A.** 197 °C

**Q.** With `CC(C)NC(=O)c1nc(-c2ccccc2F)c(-c2ccc(=O)n(C(C)C)n2)s1` as the compound, how does the melting point read?
**A.** 129 to 130 °C

**Q.** Which melting point does the source give for `Cc1c(NC(=O)c2ccc(-c3ccc(Cl)s3)cc2)ccc2cc(CN3CCCC3)cnc12` here?
**A.** 210 to 211 °C

**Q.** Which melting point does the source give for `CCC(=O)c1ccc(CCNS(=O)(=O)c2ccccc2)cc1` here?
**A.** 116 °C
